For 9 compounds, IC50 results are on record in ChEMBL document CHEMBL1158294, “Antiplatelet arylnaphthalide lignans from Justicia procumbens” (J Nat Prod, 1996).

pIC50: −log10 of the molar value. Bounds are passed on as bounds.

The experiment has as its system Platelet. The experiment in a line: Inhibition of arachidonic acid-induced platelet aggregation in rabbit […] by turbidimetric method. The class given is functional, cell-based. The conditions noted are these: Oryctolagus cuniculus.
The compound `COc1cc2c(OC)c3c(c(-c4ccc5c(c4)OCO5)c2cc1OC)C(=O)OC3` [JUSTICIDIN A] showed a pIC50 of 4.50.
Then `COc1ccc2c(c1)c(CC(=O)O)c(C)n2C(=O)c1ccc(Cl)cc1` [INDOMETHACIN], with 6.68.
With `CC(=O)Oc1ccccc1C(=O)O` [ASPIRIN] the figure was 4.69.
With `COc1cc2c(O)c3c(c(-c4ccc5c(c4)OCO5)c2cc1OC)C(=O)OC3` [DIPHYLLIN] the figure was under 4.00; with `O=C1OCc2c1c(-c1ccc3c(c1)OCO3)c1cc3c(cc1c2O)OCO3` [TAIWANIN E], 5.10.
`COc1cc2c(OC)c3c(c(-c4ccc5c(c4)OCO5)c2cc1OC)COC3=O` [NEOJUSTICIN B] gave a pIC50 of 4.29.
The compound `COc1c2c(c(-c3ccc4c(c3)OCO4)c3cc4c(cc13)OCO4)COC2=O` [NEOJUSTICIN A] had a pIC50 of 5.96.
With `COc1c2c(c(-c3ccc4c(c3)OCO4)c3cc4c(cc13)OCO4)C(=O)OC2` [TAIWANIN E METHYL ETHER] the figure was 5.77.
With `COc1ccc(-c2c3c(c(OC)c4cc5c(cc24)OCO5)COC3=O)cc1OC` [CHINENSINAPHTHOL METHYL ETHER] the figure was 4.73.

For orientation: pIC50 means the IC50 on a negative log10 scale, so that one unit is a factor of ten. A lower pIC50 goes with a large IC50.
